One test relates to CLDN14 mRNA. Briefly: CLDN14 mRNA levels in primary cultures / freshly isolated mouse TALH cells (real-time PCR). In kind it is cell-based. The note with it: 0.01 μM; versus vehicle. How it is done: An immunomagnetic separation method was used to isolate the TAL cells from the mouse kidney (Hou et al., 2009). Antibodies against the TAL cell specific surface antigen, Tamm-Horsfall protein (THP), were coated onto the paramagnetic polystyrene beads (Dynabeads M-280; Dynal), allowing immunoprecipitation of the TAL cells from collagenase digested mouse kidneys. The isolated cells were plated in DMEM medium supplemented with 10% FBS, penicillin/streptomycin, and 1 mM sodium pyruvate for 16 hours, followed by immediate transfection with NFAT or antagomirs.
(§1) Total RNA including microRNA was extracted using Trizol (Invitrogen). Cellular mRNA was reverse transcribed using the Superscript-III kit (Invitrogen), followed by real-time PCR amplification using SYBR Green PCR Master Mix (Bio-Rad) and Eppendorf Realplex2S system. The design of claudin-14 primers was described above. The design of pri-miRNA primers was according to Ma et al., (2010). Results were expressed as 2^−ΔCt values with ΔCT=Ctgene−Ctβ-actin.
An immunomagnetic separation method was used to isolate the TALH cells from the mouse kidney. (Gong Y, et al. 2012 and Gong Y, et al. 2013) Antibodies against the TALH cell specific surface antigen, Tamm-Horsfall protein, were coated onto the paramagnetic polystyrene beads (Dynabeads M-280; Dynal), allowing immunoprecipitation of the TALH cells from collagenase digested mouse kidneys. The isolated cells were plated in DMEM medium supplemented with 10% FBS, penicillin/streptomycin, and 1 mM sodium pyruvate for 16 hours, followed by immediate treatment.
Total RNA including microRNA was extracted using Trizol (Invitrogen). Cellular mRNA was reverse transcribed using the Superscript-III kit (Invitrogen), followed by real-time PCR amplification using SYBR Green PCR Master Mix (Bio-Rad) and Eppendorf Realplex2S system. […] Results were expressed as 2^−ΔCt values with ΔCT=Ctgene−Ctβ-actin. […]
Total RNA including microRNA was extracted using Trizol (Invitrogen). […] Results were expressed as 2^−ΔCt values with ΔCT=Ctgene−Ctβ-actin. […]

The next test has as its system claudin-14 mRNA. Briefly: claudin-14 mRNA levels in mouse kidney after systemic treatment (real-time PCR). In kind it is in vivo. Conditions: 1 mg/kg BW−1; 4 hr. How it is done: NPS2143 and cinacalcet (Table 1) were dissolved in vehicle—20% (w/v) (2-Hydroxypropyl)-β-cyclodextrin solution and fed to mice with gavage syringe. Cyclosporin-A (Sandimmune; Table 1) was diluted in 0.9% saline and I.P. injected to animals. Control animals received vehicle injection (13% wiv Cremophor EL and 32.9% ethanol). For dietary Ca^2+ manipulation, animals were fed with the following diets for six consecutive days: basal diet: 0.61% Ca^2+ (TestDiet #5755); low Ca^2+ diet: 0 Ca^++ (TestDiet #5855); high Ca^2+ diet: 5% Ca^2+ (TestDiet #5AVB). All animals had free access to water and were housed under a 12 hr light cycle. Blood samples were taken by cardiac puncture rapidly after initiation of terminal anesthesia and centrifuged at 4° C. for 10 min. Kidney were dissected out and immediately frozen at −80° C.
as §1
SAHA and TsA were dissolved in 5% (w/v) ethanol/0.9% saline solution and fed to mice with gavage syringe. Furosemide was dissolved in 50% (w/v) DMSO/0.9% saline solution and I.P. injected to animals. All animals had free access to water and were housed under a 12 hr light cycle. Blood samples were taken by cardiac puncture rapidly after initiation of terminal anesthesia and centrifuged at 4° C. for 10 min. Kidney were dissected out and immediately frozen at −80° C.
Total RNA including microRNA was extracted using Trizol (Invitrogen). Cellular mRNA was reverse transcribed using the Superscript-III kit (Invitrogen), followed by real-time PCR amplification using SYBR Green PCR Master Mix (Bio-Rad) and Eppendorf Realplex2S system. The design of claudin-14 primers was described before by Gong et al., 2012. The design of pri-miRNA primers and ChIP primers was according to Gong et al., 2013. Results were expressed as 2^−ΔCt values with ΔCT=Ctgene−Ctβ-actin. […]
NPS2143 and cinacalcet (Table 9) were dissolved in vehicle −20% (w/v) (2-Hydroxypropyl)-β-cyclodextrin solution and fed to mice with gavage syringe. Cyclosporin-A (Sandimmune; Table 9) was diluted in 0.9% saline and I.P. injected to animals. Control animals received CNI vehicle injection (13% wiv Cremophor EL and 32.9% ethanol). FK506 was dissolved in CNI vehicle, diluted in 0.9% saline and I.P. injected to animals. For dietary Ca^+ manipulation, animals were fed with the following diets for six consecutive days: basal diet: 0.610% Ca^++ (TestDiet #5755); low Ca^++ diet: 0 Ca^++ (TestDiet #5855); high Ca^++ diet: 5% Ca^+ (TestDiet #5AVB). All animals had free access to water and were housed under a 12 hr light cycle. Blood samples were taken by cardiac puncture rapidly after initiation of terminal anesthesia and centrifuged at 4° C. for 10 min. Kidney were dissected out and immediately frozen at −80° C.
Total RNA including microRNA was extracted using Trizol (Invitrogen). Cellular mRNA was reverse transcribed using the Superscript-III kit (Invitrogen), followed by real-time PCR amplification using SYBR Green PCR Master Mix (Bio-Rad) and Eppendorf Realplex2S system. The design of claudin-14 primers was described before by Gong. Y., et al., 2012. The design of pri-miRNA primers was according to Ma. L., et al., 2010. Results were expressed as 2^−ΔCt values with ΔCT=Ctgene−Ctβ-actin.

Test [1] is described as follows: 24 hr urinalysis in metabolic cages, plasma and urine electrolytes. It is filed as in vivo, mouse. How it is done: Age (9-10 weeks old) and sex (male) matched wild-type and CLDN14 KO mice were housed individually in metabolic cages (Harvard Apparatus) with free access to water and food for 24 hr. Urine was collected under mineral oil. The plasma and urine Ca^++ and Mg^2+ levels were determined with atomic flame absorption spectrophotometer (PerkinElmer). The plasma (P) and urine (U) electrolyte levels were determined with the Roche Cobas clinical analyzer (Roche Diagnostics). […] The fractional excretion of electrolytes was calculated using the following equation: FEion=V×Uion/(GFR×Pion), where GFR was calculated according to the clearance rate of creatinine (GFR=V×Ucreatinine/Pcreatinine).
Mice were housed individually in metabolic cages (Harvard Apparatus) with free access to water and food for 24 hr. Urine was collected under mineral oil. The plasma and urine Ca^++ and Mg^++ levels were determined with atomic flame absorption spectrophotometer (PerkinElmer). The creatinine levels were measured with an enzymatic method that was independent of plasma chromogens.

Another test concerns the target T1, human CLDN16 (AF152101) (human, UniProt Q9Y5I7 1-235).
T1 sequence (looked up): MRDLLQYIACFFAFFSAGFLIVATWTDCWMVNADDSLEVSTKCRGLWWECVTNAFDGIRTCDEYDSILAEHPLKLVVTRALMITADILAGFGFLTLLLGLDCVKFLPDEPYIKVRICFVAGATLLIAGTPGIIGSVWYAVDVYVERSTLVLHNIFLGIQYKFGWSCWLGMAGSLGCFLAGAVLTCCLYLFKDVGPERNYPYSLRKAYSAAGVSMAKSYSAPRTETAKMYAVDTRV
The experiment in a line: cell-based or functional assay.

For a further test, the system named is CLDN14. The experiment in a line: CLDN14 expression in cultured MKTAL cells. In kind it is cell-based, mouse. The note with it: 1 nM, 10 nM and 100 nM.
The mark [2] stands for this setting: WT pre-treated with furosemide 40 mg/kg BW−1 per day, Veh + Furo = furosemide alone.

Turning to `CC(/C=C/C(=O)NO)=C\[C@@H](C)C(=O)c1ccc(N(C)C)cc1` [TsA, Trichostatin A], the “CLDN14 mRNA levels, reduction” value in the test on CLDN14 mRNA is given as 64%. In addition, in the test on claudin-14 mRNA, the “CLDN14 mRNA levels in the kidney, decrease” value is given as 71%. Besides, the “effects on renal Ca++ and Mg++ metabolism (compared with SAHA)” value in test [1] (1 mg/kg BW−1 per day) is recorded as “exerted similar effects”.

On to `NS(=O)(=O)c1cc(C(=O)O)c(NCc2ccco2)cc1Cl` [Furo, Furosemide], for which, in test [1] (setting [2]), the ECa is listed as 2.84 ± 0.78 ug/24 hr · g, the EMg worked out at 13.24 ± 3.13 ug/24 hr · g, the FECa was determined as 1.89 ± 0.67 % and the FEMg was determined as 32.83 ± 1.30 %. For the same molecule, in test [1] (setting [2]), the PCa is 10.61 ± 0.43 mg/dL and the PMg was determined as 2.33 ± 0.11 mg/dL.

B1: mouse CLDN14 (AF314089) (other, UniProt Q9Z0S3 1-239, looked up)
chain: MASTAVQLLGFLLSFLGMVGTLITTILPHWRRTAHVGTNILTAVSYLKGLWMECVWHSTGIYQCQIYRSLLALPRDLQAARALMVISCLLSGMACACAVVGMKCTRCAKGTPAKTTFAVLGGALFLLAGLLCMVAVSWTTNDVVQNFYNPLLPSGMKFEIGQALYLGFISSSLSLIGGTLLCLSCQDEAPYRPYPPQSRAGATTTATAPAYRPPAAYKDNRAPSVTSAAHSGYRLNDYV
For the molecule B1, in the test with human CLDN16 (AF152101), the “fold decrease of absolute Na+ permeability, CLDN14+16+19 versus CLDN16+19” value was 2.43 fold and the “fold reduction of PNa by CLDN14 in CLDN16 cell background” value was determined as 2.03 fold.

B2: PTH: human recombinant PTH (1-84; Sigma) (protein, UniProt P01270 32-115, looked up)
Parathyroid hormone: SVSEIQLMHNLGKHLNSMERVEWLRKKLQDVHNFVALGAPLAPRDAGSQRPRKKEDNVLVESHEKSLGEADKADVNVLTKAKSQ
modifications: Parathyroid hormone
On to B2, for which the CLDN14 gene expression entry with CLDN14 was “no significant effect”.

For the origin of these results see patent US20140242609A1, “Diagnosis and treatment of kidney stones, methods and compositions therefor” (Washington University, priority 2013, published 2014).
